From the CheMixHub viscosity set
Where “and” joins values, the source holds several entries; their conditions need not be identical. Identical values can stand only once.

Assay: xn = mol fraction of the nth substance listed

O=[N+]([O-])[O-].[Na+] + O
viscosity [mPa·s]
Details | 293.15 K | 298.15 K | 303.15 K | 308.15 K | 313.15 K | 318.15 K
101 kPa, x1 = 0.0371 | – | – | – | – | 0.78 | –
101 kPa, x1 = 0.0564 | – | 1.19 | – | – | 0.89 | –
101 kPa, x1 = 0.0768 | – | 1.3 | – | – | 1.02 | –
101 kPa, x1 = 0.0978 | – | 1.63 | – | – | 1.2 | –
101 kPa, x1 = 0.12 | – | 1.92 | – | – | 1.41 | –
101.1 kPa, x1 = 0.0001893 | 1.003 | 0.892 | 0.799 | 0.721 | 0.654 | 0.598
101.1 kPa, x1 = 0.0007456 | 1.004 | 0.893 | 0.8 | 0.722 | 0.655 | 0.6
101.1 kPa, x1 = 0.0018 | 1.007 | 0.895 | 0.803 | 0.725 | 0.658 | 0.602
101.1 kPa, x1 = 0.007199 | 1.02 | 0.909 | 0.817 | 0.738 | 0.662 | 0.608
101.1 kPa, x1 = 0.01603 | 1.032 | 0.923 | 0.83 | 0.75 | 0.676 | 0.618
101.1 kPa, x1 = 0.0211 | 1.052 | 0.934 | 0.836 | 0.754 | 0.682 | 0.623
101.3 kPa, x1 = 0.0009 | 1.005 | 0.8932 | 0.8005 | 0.7222 | – | 0.5989
101.3 kPa, x1 = 0.0018 | 1.007 | 0.8955 | 0.8028 | 0.7247 | – | 0.6018
101.3 kPa, x1 = 0.00893 | 1.025 | 0.915 | 0.8225 | 0.7446 | – | 0.6207
101.3 kPa, x1 = 0.0177 | 1.058 | 0.9465 | 0.853 | 0.7732 | – | 0.6476
101.3 kPa, x1 = 0.03478 | 1.15 | 1.032 | 0.9323 | 0.8482 | – | 0.7131
101.3 kPa, x1 = 0.05127 | 1.275 | 1.144 | 1.034 | 0.9397 | – | 0.7913
101.3 kPa, x1 = 0.06722 | 1.418 | 1.271 | 1.148 | 1.043 | – | 0.8782
101.3 kPa, x1 = 0.09755 | 1.796 | 1.604 | 1.444 | 1.309 | – | 1.097
101.3 kPa, x1 = 0.126 | 2.231 | 1.983 | 1.778 | 1.606 | – | 1.338
101.33 kPa, x1 = 0.000905 | – | – | – | 0.7324 | 0.6609 | –
101.33 kPa, x1 = 0.002718 | – | – | – | 0.7422 | 0.6695 | –
101.33 kPa, x1 = 0.00453 | – | – | – | 0.7525 | 0.6763 | –
101.33 kPa, x1 = 0.006344 | – | – | – | 0.7606 | 0.6855 | –
101.33 kPa, x1 = 0.008159 | – | – | – | 0.7705 | 0.6992 | –
101.33 kPa, x2 = 0.84 | 3.04 | – | – | – | – | –
101.33 kPa, x2 = 0.86 | 2.507 | – | – | – | – | –
101.33 kPa, x2 = 0.88 | 2.15 | – | – | – | – | –
101.33 kPa, x2 = 0.89 | 2.088 | – | – | – | – | –
101.33 kPa, x2 = 0.91 | 1.752 | – | – | – | – | –
101.33 kPa, x2 = 0.92 | 1.502 | – | – | – | – | –
101.33 kPa, x2 = 0.94 | 1.384 | – | – | – | – | –

CC(C)C(=O)O + O
Details | viscosity
293.15 K, 101.33 kPa, x1 = 0.011 | 1.181 mPa·s
293.15 K, 101.33 kPa, x1 = 0.0222 | 1.448 mPa·s
293.15 K, 101.33 kPa, x1 = 0.0348 | 1.558 mPa·s
293.15 K, 101.33 kPa, x1 = 0.0486 | 1.779 mPa·s
299.35 K, 101.33 kPa, x1 = 0.11 | 2.904 mPa·s
299.36 K, 101.33 kPa, x1 = 0.11 | 2.896 mPa·s
299.37 K, 101.33 kPa, x1 = 0.11 | 2.882 mPa·s
299.38 K, 101.33 kPa, x1 = 0.11 | 2.868 mPa·s
299.39 K, 101.33 kPa, x1 = 0.11 | 2.846 mPa·s and 2.836 mPa·s
299.4 K, 101.33 kPa, x1 = 0.11 | 2.813 mPa·s
299.43 K, 101.33 kPa, x1 = 0.11 | 2.767 mPa·s
299.45 K, 101.33 kPa, x1 = 0.11 | 2.751 mPa·s
299.48 K, 101.33 kPa, x1 = 0.11 | 2.711 mPa·s
299.5 K, 101.33 kPa, x1 = 0.11 | 2.69 mPa·s
299.56 K, 101.33 kPa, x1 = 0.11 | 2.645 mPa·s
299.64 K, 101.33 kPa, x1 = 0.11 | 2.606 mPa·s
299.72 K, 101.33 kPa, x1 = 0.11 | 2.571 mPa·s
299.85 K, 101.33 kPa, x1 = 0.11 | 2.541 mPa·s
299.96 K, 101.33 kPa, x1 = 0.11 | 2.506 mPa·s
300.15 K, 101.33 kPa, x1 = 0.11 | 2.466 mPa·s
300.4 K, 101.33 kPa, x1 = 0.11 | 2.422 mPa·s
301.15 K, 101.33 kPa, x1 = 0.11 | 2.317 mPa·s
302.15 K, 101 kPa, x1 = 0.0106 | 0.9416 mPa·s
302.15 K, 101 kPa, x1 = 0.0222 | 1.066 mPa·s
302.15 K, 101 kPa, x1 = 0.0348 | 1.21 mPa·s
302.15 K, 101 kPa, x1 = 0.0486 | 1.388 mPa·s
302.15 K, 101 kPa, x1 = 0.0545 | 1.469 mPa·s
302.15 K, 101 kPa, x1 = 0.0638 | 1.6 mPa·s
302.15 K, 101 kPa, x1 = 0.0737 | 1.74 mPa·s
302.15 K, 101 kPa, x1 = 0.0806 | 1.837 mPa·s
302.15 K, 101 kPa, x1 = 0.0915 | 1.999 mPa·s
302.15 K, 101 kPa, x1 = 0.1114 | 2.213 mPa·s
302.15 K, 101 kPa, x1 = 0.12 | 2.285 mPa·s
302.15 K, 101 kPa, x1 = 0.129 | 2.348 mPa·s
302.15 K, 101 kPa, x1 = 0.1433 | 2.423 mPa·s
302.15 K, 101 kPa, x1 = 0.1698 | 2.499 mPa·s
302.15 K, 101 kPa, x1 = 0.1999 | 2.568 mPa·s
302.15 K, 101 kPa, x1 = 0.2347 | 2.614 mPa·s
302.15 K, 101 kPa, x1 = 0.323 | 2.632 mPa·s
302.15 K, 101 kPa, x1 = 0.4499 | 2.493 mPa·s
302.15 K, 101 kPa, x1 = 0.4996 | 2.403 mPa·s
302.15 K, 101 kPa, x1 = 0.7953 | 1.685 mPa·s
302.15 K, 101 kPa, x1 = 0.9529 | 1.27 mPa·s
302.27 K, 101.33 kPa, x1 = 0.11 | 2.211 mPa·s
303.11 K, 101.33 kPa, x1 = 0.11 | 2.144 mPa·s
303.15 K, 101.33 kPa, x2 = 0.352 | 1.51 mPa·s
303.15 K, 101.33 kPa, x2 = 0.55 | 2.12 mPa·s
303.15 K, 101.33 kPa, x2 = 0.677 | 2.43 mPa·s
303.15 K, 101.33 kPa, x2 = 0.765 | 2.51 mPa·s
303.15 K, 101.33 kPa, x2 = 0.83 | 2.42 mPa·s
303.15 K, 101.33 kPa, x2 = 0.88 | 2 mPa·s
303.15 K, 101.33 kPa, x2 = 0.919 | 1.58 mPa·s
303.15 K, 101.33 kPa, x2 = 0.951 | 1.28 mPa·s
303.15 K, 101.33 kPa, x2 = 0.978 | 1.02 mPa·s
304.12 K, 101.33 kPa, x1 = 0.11 | 2.07 mPa·s
305.07 K, 101.33 kPa, x1 = 0.11 | 2.003 mPa·s
305.15 K, 101 kPa, x1 = 0.0106 | 0.8833 mPa·s
305.15 K, 101 kPa, x1 = 0.0222 | 0.9974 mPa·s
305.15 K, 101 kPa, x1 = 0.0348 | 1.127 mPa·s
305.15 K, 101 kPa, x1 = 0.0486 | 1.284 mPa·s
305.15 K, 101 kPa, x1 = 0.0545 | 1.355 mPa·s
305.15 K, 101 kPa, x1 = 0.0638 | 1.469 mPa·s
305.15 K, 101 kPa, x1 = 0.0737 | 1.59 mPa·s
305.15 K, 101 kPa, x1 = 0.0806 | 1.673 mPa·s
305.15 K, 101 kPa, x1 = 0.0915 | 1.799 mPa·s
305.15 K, 101 kPa, x1 = 0.1114 | 1.993 mPa·s
305.15 K, 101 kPa, x1 = 0.12 | 2.06 mPa·s
305.15 K, 101 kPa, x1 = 0.129 | 2.117 mPa·s
305.15 K, 101 kPa, x1 = 0.1433 | 2.18 mPa·s
305.15 K, 101 kPa, x1 = 0.1698 | 2.271 mPa·s
305.15 K, 101 kPa, x1 = 0.1999 | 2.339 mPa·s
305.15 K, 101 kPa, x1 = 0.2347 | 2.388 mPa·s
305.15 K, 101 kPa, x1 = 0.323 | 2.423 mPa·s
305.15 K, 101 kPa, x1 = 0.4499 | 2.32 mPa·s
305.15 K, 101 kPa, x1 = 0.4996 | 2.244 mPa·s
305.15 K, 101 kPa, x1 = 0.6404 | 1.959 mPa·s
305.15 K, 101 kPa, x1 = 0.7953 | 1.597 mPa·s
305.15 K, 101 kPa, x1 = 0.9529 | 1.214 mPa·s
306.72 K, 101.33 kPa, x1 = 0.11 | 1.907 mPa·s
307.67 K, 101.33 kPa, x1 = 0.11 | 1.855 mPa·s
308.15 K, 101 kPa, x1 = 0.0106 | 0.8203 mPa·s
308.15 K, 101 kPa, x1 = 0.0222 | 0.9263 mPa·s
308.15 K, 101 kPa, x1 = 0.0348 | 1.049 mPa·s
308.15 K, 101 kPa, x1 = 0.0486 | 1.194 mPa·s
308.15 K, 101 kPa, x1 = 0.0545 | 1.259 mPa·s
308.15 K, 101 kPa, x1 = 0.0638 | 1.361 mPa·s
308.15 K, 101 kPa, x1 = 0.0737 | 1.468 mPa·s
308.15 K, 101 kPa, x1 = 0.0806 | 1.541 mPa·s
308.15 K, 101 kPa, x1 = 0.0915 | 1.651 mPa·s
308.15 K, 101 kPa, x1 = 0.1114 | 1.827 mPa·s
308.15 K, 101 kPa, x1 = 0.12 | 1.878 mPa·s
308.15 K, 101 kPa, x1 = 0.129 | 1.927 mPa·s
308.15 K, 101 kPa, x1 = 0.1433 | 1.99 mPa·s
308.15 K, 101 kPa, x1 = 0.1698 | 2.077 mPa·s
308.15 K, 101 kPa, x1 = 0.1999 | 2.144 mPa·s
308.15 K, 101 kPa, x1 = 0.2347 | 2.195 mPa·s
308.15 K, 101 kPa, x1 = 0.323 | 2.24 mPa·s
308.15 K, 101 kPa, x1 = 0.4499 | 2.156 mPa·s
308.15 K, 101 kPa, x1 = 0.4996 | 2.089 mPa·s
308.15 K, 101 kPa, x1 = 0.6404 | 1.837 mPa·s
308.15 K, 101 kPa, x1 = 0.7953 | 1.504 mPa·s
308.15 K, 101 kPa, x1 = 0.9529 | 1.155 mPa·s
311.15 K, 101 kPa, x1 = 0.0106 | 0.765 mPa·s
311.15 K, 101 kPa, x1 = 0.0222 | 0.8626 mPa·s
313.15 K, 101.33 kPa, x1 = 0.011 | 0.767 mPa·s
313.15 K, 101.33 kPa, x1 = 0.0222 | 0.907 mPa·s
313.15 K, 101.33 kPa, x1 = 0.0348 | 0.965 mPa·s
313.15 K, 101.33 kPa, x1 = 0.0486 | 1.094 mPa·s
